Assays:
[1] = target: T1, human cloned CHRM3 receptor (Homo sapiens, UniProt P20309); assay: CHRM3 Ca++ Flux Assay (M3_CHO cells, agonist mode); assay type: cell-based; settings: for M3 FDSS PA %: Percent Activity (PA) measured to EC100 of Carbachol; for EC50: agonist mode, geometric mean if tested more than once, read-out: M3 FDSS EC50
T1 construct: expressed in transfected cells; host or cells: CHO-K1 (M3_CHO)
Protocol: (§1) The above examples were characterized by measuring the intracellular mobilization of Ca^++ ions caused by signaling events mediated by the receptor. The Intra-cellular Calcium flux levels were captured by the highly sensitive Ca^++ indicator, Calcium Assay Kit (BD Biosciences; Catalog Number 640178. The fluorescent activity from all receptors were monitored by the fluorescent imager, FDSS 7000EX (Hamamatsu) over a span of 3 minutes. The change in Calcium flux was readily captured upon activation with the muscarinic orthosteric agonist, Carbachol.
CHO-K1 cells stably expressing the human cloned CHRM3 receptor (M3_CHO cells) were grown and maintained in a monolayer culture with F12/HAM (Life Technologies) supplemented with 10% Fetal Bovine Serum, IX Pen-Strep, and 0.4 mg/mL Geneticin in a humidified atmosphere (5% CO2) at 37° C. The cultures were grown to 80-90% confluency in T150 flasks (Corning) and washed with 1×DPBS and lifted with 0.05% Trypsin (Life Technologies). The cells were then spun (1K rpm, 3 minutes) and frozen using Recovery Cell Culture Freezing Media (Gibco Technologies). Cells were stored in liquid nitrogen and thawed a day before the assay. A similar procedure was used for cells stably expressing the human cloned CHRM5 receptor (M5_CHO).
Prior to the day of the assay, stable M3_CHO or M5_CHO cells were thawed and plated on Greiner 384 well black TC treated plates at 12K cells/well in F12/DMEM supplemented with 10% FBS (Hyclone) and kept overnight in a humidified atmosphere (5% CO2) at 37° C. The next day, cells were loaded with Ca^++ dye (BD Biosciences) using Loading Buffer (HBSS +Ca/+Mg, 20 mM HEPES, 2.5 mM Probenecid) and placed back in cell incubator for a minimum of 1 hour. After incubation, the dye was replaced with Assay Buffer (HBSS −Ca/−Mg, 20 mM HEPES, 2.5 mM Probenecid) and kept at room temperature in the dark before running on cell imager. The FDSS 7000EX (Hamamatsu) was used to acquire Ca^+− traces from cells treated with 11 point dose response of compounds in triplicate in order to generate dose response curves in agonist mode. All compounds were serially diluted in DMSO then prepared in Assay Buffer for Ca^++ flux studies. The dose response curves were generated from the average of triplicate wells obtained from each data point and used a non-linear regression of four parameter dose response algorithm. The Percent Activity (PA) was measured to EC100 of Carbachol.
(§2) If an Example was tested more than once in an assay, then the values below represent the geometric mean of the results from each independent experiment.

[2] = target: T2, human cloned CHRM4 receptor (Homo sapiens, UniProt P08173); assay: CHRM4 Ca++ Flux Assay (M4_CHO cells, agonist mode); assay type: cell-based; settings: for M4 FDSS PA %: Percent Activity (PA); for EC50: geometric mean if tested more than once, read-out: M4 FDSS EC50
T2 construct: expressed in transfected cells; host or cells: CHO-K1 (M4_CHO)
T2 sequence (P08173 1-479): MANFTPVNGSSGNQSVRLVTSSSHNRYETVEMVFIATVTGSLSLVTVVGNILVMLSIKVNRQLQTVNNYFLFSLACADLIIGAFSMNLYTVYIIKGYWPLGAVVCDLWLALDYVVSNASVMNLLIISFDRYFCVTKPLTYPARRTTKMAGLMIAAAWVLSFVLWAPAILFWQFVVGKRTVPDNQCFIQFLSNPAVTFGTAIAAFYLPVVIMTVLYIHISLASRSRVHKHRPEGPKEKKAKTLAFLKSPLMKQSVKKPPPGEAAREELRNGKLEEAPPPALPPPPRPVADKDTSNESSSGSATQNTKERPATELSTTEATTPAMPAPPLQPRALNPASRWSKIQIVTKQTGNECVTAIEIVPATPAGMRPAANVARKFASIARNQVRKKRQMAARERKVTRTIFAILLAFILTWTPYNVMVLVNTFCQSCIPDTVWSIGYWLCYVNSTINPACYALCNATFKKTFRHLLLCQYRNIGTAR
Protocol: as §1
CHO-K1 cells stably expressing the human cloned CHRM4 receptor (M4_CHO cells) were grown and maintained in a monolayer culture with F12/HAM (Life Technologies) supplemented with 10% Fetal Bovine Serum, 1X Pen-Strep, and 0.4 mg/mL Geneticin in a humidified atmosphere (5% CO2) at 37° C. The cultures were grown to 80-90% confluency in T150 flasks (Corning) and washed with 1×DPBS then lifted with 0.05% Trypsin (Life Technologies). The cells were harvested in growth media then spun (1K rpm, 3 minutes) and cryopreserved using Recovery Cell Culture Freezing Media (Gibco Technologies). Cells were stored in liquid nitrogen and thawed a day before the assay.
Prior to the day of the assay, stable M4_CHO cells were thawed and plated on 384 well black walled clear bottom TC treated plates (Greiner Cat #781091) at 12K cells/well using F12/HAM Media supplemented with 10% FBS (Life Technologies) and kept overnight in a humidified atmosphere (5% CO2) at 37° C. The next day, cells were loaded with 20 μL Ca^++ dye (BD Biosciences) using Loading Buffer (HBSS +Ca/+Mg, 20 mM HEPES, 2.5 mM Probenecid) and placed back in cell incubator for a minimum of 1 hour. After incubation, the dye was replaced with 45 μL Assay Buffer (HBSS −Ca/−Mg, 20 mM HEPES, 2.5 mM Probenecid) supplemented with 20 μM ATP (Sigma Aldrich) and kept at room temperature in the dark for 60 minutes before running on a cell imager. The FDSS 7000EX (Hamamatsu) was used to capture Ca^++ traces for a span of 3 minutes from cells treated with 11 point dose of compound in triplicate in order to generate dose response curves in agonist mode. All compounds were serially diluted in DMSO then prepared in Assay Buffer for Ca^++ flux studies. The dose response curves were generated from the average of triplicate wells obtained from each data point and used a non-linear regression of four parameter dose response algorithm. The Percent Activity (PA) was measured to EC100 of Carbachol.
as §2

T1 sequence (P20309 whole entry): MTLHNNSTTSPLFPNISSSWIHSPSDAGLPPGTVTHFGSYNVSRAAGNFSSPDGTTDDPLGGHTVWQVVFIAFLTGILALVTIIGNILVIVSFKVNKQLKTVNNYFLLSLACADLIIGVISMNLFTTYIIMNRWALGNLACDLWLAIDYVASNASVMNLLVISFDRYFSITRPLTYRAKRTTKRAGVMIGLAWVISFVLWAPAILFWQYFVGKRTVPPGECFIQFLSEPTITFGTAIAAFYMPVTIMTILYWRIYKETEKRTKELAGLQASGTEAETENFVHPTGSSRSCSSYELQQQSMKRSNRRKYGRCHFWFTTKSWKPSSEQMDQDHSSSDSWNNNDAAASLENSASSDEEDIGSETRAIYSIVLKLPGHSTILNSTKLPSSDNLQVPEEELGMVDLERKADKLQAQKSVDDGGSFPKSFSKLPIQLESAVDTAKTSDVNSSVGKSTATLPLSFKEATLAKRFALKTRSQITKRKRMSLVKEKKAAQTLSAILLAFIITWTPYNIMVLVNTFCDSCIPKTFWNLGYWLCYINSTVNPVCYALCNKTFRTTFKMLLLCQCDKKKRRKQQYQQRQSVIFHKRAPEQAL

M3 FDSS PA % [1] | EC50 [1] | M4 FDSS PA % [2] | EC50 [2] | Compound
0% | > 25 µM | 70% | 87 nM | CC(C)(O)[C@H]1C[C@H](Oc2ccc(F)cc2C2CCN([C@@H]3COC4(C3)CN(c3nnco3)C4)CC2)C1 (single isomer, unassigned) [Example 2W, 2-((1S,3r)-3-(2-(1-((S)-2-(1,3,4-oxadiazol-2-yl)-5-oxa-2-azaspiro[3.4]octan-7-yl)piperidin-4-yl)-4-fluorophenoxy)cyclobutyl)propan-2-ol or 2-((1R,3s)-3-(2-(1-((S)-2-(1,3,4-oxadiazol-2-yl)-5-oxa-2-azaspiro[3.4]octan-7-yl)piperidin-4-yl)-4-fluorophenoxy)cyclobutyl)propan-2-ol]
0% | > 25 µM | 76% | 554 nM | C[C@H](Oc1ccc(F)cc1C1CCN([C@@H]2COC3(C2)CN(c2nnco2)C3)CC1)C1CCOCC1 (single isomer, unassigned) [Example 2Y, (S)-7-(4-(5-fluoro-2-((S)-1-(tetrahydro-2H-pyran-4-yl)ethoxy)phenyl)piperidin-1-yl)-2-(1,3,4-oxadiazol-2-yl)-5-oxa-2-azaspiro[3.4]octane or (S)-7-(4-(5-fluoro-2-((R)-1-(tetrahydro-2H-pyran-4-yl)ethoxy)phenyl)piperidin-1-yl)-2-(1,3,4-oxadiazol-2-yl)-5-oxa-2-azaspiro[3.4]octane]
20% | 10.7 µM | 83.2% | 10 nM | O[C@H]1CC[C@@H](c2ccc(F)cc2C2CCN([C@@H]3COC4(C3)CN(c3nnco3)C4)CC2)CC1 (single isomer, unassigned) [Example 3H, (1R,4s)-4-(2-(1-((S)-2-(1,3,4-oxadiazol-2-yl)-5-oxa-2-azaspiro[3.4]octan-7-yl)piperidin-4-yl)-4-fluorophenyl)cyclohexan-1-ol or (1S,4r)-4-(2-(1-((S)-2-(1,3,4-oxadiazol-2-yl)-5-oxa-2-azaspiro[3.4]octan-7-yl)piperidin-4-yl)-4-fluorophenyl)cyclohexan-1-ol]
0% | > 25 µM | 91.2% | 38 nM | O[C@H]1CC[C@@H](c2ccc(F)cc2C2CCN([C@@H]3COC4(C3)CN(c3nnco3)C4)CC2)CC1 (single isomer, unassigned) [Example 3I, (1R,4s)-4-(2-(1-((S)-2-(1,3,4-oxadiazol-2-yl)-5-oxa-2-azaspiro[3.4]octan-7-yl)piperidin-4-yl)-4-fluorophenyl)cyclohexan-1-ol or (1S,4r)-4-(2-(1-((S)-2-(1,3,4-oxadiazol-2-yl)-5-oxa-2-azaspiro[3.4]octan-7-yl)piperidin-4-yl)-4-fluorophenyl)cyclohexan-1-ol]
0% | > 25 µM | 63% | 25 nM | CC(C)(O)[C@H]1C[C@@H](Oc2ccc(F)cc2C2CCN([C@@H]3COC4(C3)CN(c3ncco3)C4)CC2)C1 (single isomer, unassigned) [Example 4T, 2-((1R,3s)-3-(4-fluoro-2-(1-((S)-2-(oxazol-2-yl)-5-oxa-2-azaspiro[3.4]octan-7-yl)piperidin-4-yl)phenoxy)cyclobutyl)propan-2-ol or 2-((1S,3r)-3-(4-fluoro-2-(1-((S)-2-(oxazol-2-yl)-5-oxa-2-azaspiro[3.4]octan-7-yl)piperidin-4-yl)phenoxy)cyclobutyl)propan-2-ol]

Compound | M3 FDSS PA % [1] | EC50 [1] | M4 FDSS PA % [2] | EC50 [2]
c1ccc([C@@H]2CCOC2)c(C2CCN([C@@H]3COC4(C3)CN(c3nnco3)C4)CC2)c1 (single isomer, unassigned) [Example 3A, (S)-2-(1,3,4-oxadiazol-2-yl)-7-(4-(2-((S)-tetrahydrofuran-3-yl)phenyl)piperidin-1-yl)-5-oxa-2-azaspiro[3.4]octane or (S)-2-(1,3,4-oxadiazol-2-yl)-7-(4-(2-((R)-tetrahydrofuran-3-yl)phenyl)piperidin-1-yl)-5-oxa-2-azaspiro[3.4]octane] | 0% | > 25 µM | 91% | 83 nM
c1ccc([C@@H]2CCOC2)c(C2CCN([C@@H]3COC4(C3)CN(c3nnco3)C4)CC2)c1 (single isomer, unassigned) [Example 3B, (S)-2-(1,3,4-oxadiazol-2-yl)-7-(4-(2-((S)-tetrahydrofuran-3-yl)phenyl)piperidin-1-yl)-5-oxa-2-azaspiro[3.4]octane or (S)-2-(1,3,4-oxadiazol-2-yl)-7-(4-(2-((R)-tetrahydrofuran-3-yl)phenyl)piperidin-1-yl)-5-oxa-2-azaspiro[3.4]octane] | 0% | > 25 µM | 86% | 69 nM
Fc1ccc([C@H]2CCOC2)c(C2CCN([C@@H]3COC4(C3)CN(c3nnco3)C4)CC2)c1 (single isomer, unassigned) [Example 3E, (S)-7-(4-(5-fluoro-2-((R)-tetrahydrofuran-3-yl)phenyl)piperidin-1-yl)-2-(1,3,4-oxadiazol-2-yl)-5-oxa-2-azaspiro[3.4]octane or (S)-7-(4-(5-fluoro-2-((S)-tetrahydrofuran-3-yl)phenyl)piperidin-1-yl)-2-(1,3,4-oxadiazol-2-yl)-5-oxa-2-azaspiro[3.4]octane] | 0% | > 25 µM | 86% | 28 nM
Fc1ccc([C@H]2CCOC2)c(C2CCN([C@@H]3COC4(C3)CN(c3nnco3)C4)CC2)c1 (single isomer, unassigned) [Example 3F, (S)-7-(4-(5-fluoro-2-((R)-tetrahydrofuran-3-yl)phenyl)piperidin-1-yl)-2-(1,3,4-oxadiazol-2-yl)-5-oxa-2-azaspiro[3.4]octane or (S)-7-(4-(5-fluoro-2-((S)-tetrahydrofuran-3-yl)phenyl)piperidin-1-yl)-2-(1,3,4-oxadiazol-2-yl)-5-oxa-2-azaspiro[3.4]octane] | 0% | > 25 µM | 80% | 23 nM
